Results reported in article PMC11091072, “Targeting bacterial nickel transport with aspergillomarasmine A suppresses virulence-associated Ni-dependent enzymes” (Nature Communications, 2024).
Where “and” joins values, the source holds several entries; their conditions need not be identical. Equal entries are not always repeated. Entries after “also recorded” stand apart in the source; their conditions may differ. Where two headings read alike, the source gives them in different places.

Assays:
[1] = Competitive ITC of AMA, Zn2+ and Ni2+ (Ni2+ affinity of AMA); assay type: binding; conditions: competition ITC, 25 mM Tris-HCl, 150 mM NaCl, pH 7.5, 37 °C; estimated; read-out: KD for Ni^2+
[2] = read-out: KD for Zn^2+; cited from earlier work
S. aureus biofilm = assay: Polystyrene microtiter biofilm assay (crystal violet); assay type: cell-based, Staphylococcus aureus USA300; conditions: artificial urine or M9
Protocol: Biofilm assays to assess the effect of Zn-AMA were adapted from a previously described method. Overnight cultures of K. pneumoniae or S. aureus USA300 were diluted in sterile saline (NaCl, 0.9% w/v) to an OD600 of 0.1 and diluted 1/200 in either M9-Cas, or artificial urine. Two-fold dilutions of Zn-AMA were added to the cells in a 96-well round-bottom microtiter plate, and the cells were grown at 37 °C for 18 hours in a static incubator. Following incubation, the microtiter plates were agitated on an orbital shaker (300 rpm, 2 min), the planktonic cells were transferred to a fresh plate, and their OD600 was quantified. The biofilms were washed three times with deionized water, air-dried, and stained with 0.1% crystal violet for 15 min. Excess crystal violet was removed, the plates were washed with deionized water three times, and they were air-dried for 1 hour. The crystal violet-stained biofilms were solubilized in 33% acetic acid (100 μL) for 5 min, and the absorbance (600 nm) was measured. Experiments were performed in four replicates, and absorbance measurements were performed in a BioTek Synergy H1 plate reader.

[3] = system: K. pneumoniae urease activity (whole cell); assay: Checkerboard analysis of Zn-AMA and AHA on urease activity; assay type: cell-based, Klebsiella pneumoniae
Protocol: To guide our exploration of the mode of action of Zn-AMA, we investigated whether a chemical-chemical interaction occurs with the urease inhibitor AHA. […] We subsequently performed inductively coupled plasma mass spectrometry (ICP-MS) analyses to evaluate the intracellular Ni^2+ and Zn^2+ content of K. pneumoniae.
K. pneumoniae whole-cell urease activity was determined with artificial urine containing 0.2% (w/v) casamino acids and 0.01% (w/v) phenol red in 96-well plates. For the growth of S. aureus in artificial urine, the medium was supplemented with 10% LB. After 20–24 hours of growth, bacteria were removed using 0.45 μm filter plates, and the final A550 of the medium was measured using a plate reader.
FIG S7 Evaluation of Zn-AMA as a direct inhibitor of urease. A) Checkerboard analysis of Zn-AMA and AHA on urease activity of K.
pneumoniae after growth for 24 h at 37 °C artificial urine. pH is represented by the color scale determined with phenol red. […]

[4] = system: K. pneumoniae urease activity (Ni2+ uptake); assay: Competition of Zn-AMA with Ni-(L-His)2 (urease-dependent pH); assay type: cell-based, Klebsiella pneumoniae
K. pneumoniae ATCC 33495 = assay: Galleria mellonella infection model; assay type: in vivo; conditions: for survival curve event per larva: K. pneumoniae + 7.5 μg/mL Zn-AMA, one cell per larva
Protocol: (§1) The cell suspensions were mixed at an equal volume of 300 μg/mL Zn-AMA before injection. The larvae were each injected with 10 μL ([…]) of bacterial suspension with and without Zn-AMA or PBS. Ten larvae were used per group, incubated at 30 °C, and monitored on a 24-hour cycle. Fresh G. mellonella larvae were obtained from The Dragon Lair (www.thedragonlair.ca).

[5] = system: S. aureus USA300 ureC::tn; assay: Galleria mellonella infection model; assay type: in vivo; conditions: for survival curve event per larva: S. aureus ureC::Tn + 7.5 μg/mL Zn-AMA, one cell per larva
Protocol: as §1

S. aureus USA300 = assay: Galleria mellonella infection model; assay type: in vivo; conditions: for survival curve event per larva: S. aureus + 7.5 μg/mL Zn-AMA, one cell per larva
Protocol: as §1

In the case of `N[C@@H](CN[C@@H](CN[C@@H](CC(=O)O)C(=O)O)C(=O)O)C(=O)O` [AMA, aspergillomarasmine A], the Kd [1] is given as ~0.08 nM and 0.08 nM and the Kd [2] is given as 0.2 nM.

In the case of `N[C@@H](CN[C@@H](CN[C@@H](CC(=O)O)C(=O)O)C(=O)O)C(=O)O.[Zn+2]` [Zn-AMA], the “effect on biofilm production” value (S. aureus biofilm) is reported as “anti-biofilm activity was not observed”, the “Urease-dependent pH change (pH)” value ([3]; Zn-AMA 0.39 μM, AHA 0 mM) is reported as 8.26 and the “Urease-dependent pH change (pH)” value ([3]; Zn-AMA 0.39 μM, AHA 0.1 mM) is reported as 8.14. The “Urease-dependent pH change (pH)” value ([3]; Zn-AMA 0.39 μM, AHA 0.2 mM) was 8.05, the “Urease-dependent pH change (pH)” value ([3]; Zn-AMA 0.39 μM, AHA 0.4 mM) was 7.76 and the “Urease-dependent pH change (pH)” value ([3]; Zn-AMA 0.39 μM, AHA 0.5 mM) was 8.22. The “Urease-dependent pH change (pH)” value ([3]; Zn-AMA 0.39 μM, AHA 0.8 mM) was 7.29, the “Urease-dependent pH change (pH)” value ([3]; Zn-AMA 0.39 μM, AHA 1.6 mM) was 6.70 and the “Urease-dependent pH change (pH)” value ([3]; Zn-AMA 0.78 μM, AHA 0 mM) was 8.08. The “Urease-dependent pH change (pH)” value ([3]; Zn-AMA 0.78 μM, AHA 0.1 mM) was 7.95, the “Urease-dependent pH change (pH)” value ([3]; Zn-AMA 0.78 μM, AHA 0.2 mM) was 7.81 and the “Urease-dependent pH change (pH)” value ([3]; Zn-AMA 0.78 μM, AHA 0.4 mM) was 7.50. For the same compound, the “Urease-dependent pH change (pH)” value ([3]; Zn-AMA 0.78 μM, AHA 0.5 mM) was 8.01, the “Urease-dependent pH change (pH)” value ([3]; Zn-AMA 0.78 μM, AHA 0.8 mM) was 7.03 and the “Urease-dependent pH change (pH)” value ([3]; Zn-AMA 0.78 μM, AHA 1.6 mM) was 6.68. The “Urease-dependent pH change (pH)” value ([3]; Zn-AMA 1.56 μM, AHA 0 mM) was 7.83, the “Urease-dependent pH change (pH)” value ([3]; Zn-AMA 1.56 μM, AHA 0.1 mM) was 7.46 and the “Urease-dependent pH change (pH)” value ([3]; Zn-AMA 1.56 μM, AHA 0.2 mM) was 7.19. The “Urease-dependent pH change (pH)” value ([3]; Zn-AMA 1.56 μM, AHA 0.4 mM) was 6.86, the “Urease-dependent pH change (pH)” value ([3]; Zn-AMA 1.56 μM, AHA 0.5 mM) was 7.51 and the “Urease-dependent pH change (pH)” value ([3]; Zn-AMA 1.56 μM, AHA 0.8 mM) was 6.64. The “Urease-dependent pH change (pH)” value ([3]; Zn-AMA 1.56 μM, AHA 1.6 mM) was 6.51, the “Urease-dependent pH change (pH)” value ([3]; Zn-AMA 3.12 μM, AHA 0 mM) was 7.23 and the “Urease-dependent pH change (pH)” value ([3]; Zn-AMA 3.12 μM, AHA 0.1 mM) was 6.85. For the same compound, the “Urease-dependent pH change (pH)” value ([3]; Zn-AMA 3.12 μM, AHA 0.2 mM) was 6.78, the “Urease-dependent pH change (pH)” value ([3]; Zn-AMA 3.12 μM, AHA 0.4 mM) was 6.74 and the “Urease-dependent pH change (pH)” value ([3]; Zn-AMA 3.12 μM, AHA 0.5 mM) was 6.97. For the same compound, the “Urease-dependent pH change (pH)” value ([3]; Zn-AMA 3.12 μM, AHA 0.8 mM) was 6.56, the “Urease-dependent pH change (pH)” value ([3]; Zn-AMA 3.12 μM, AHA 1.6 mM) was 6.46 and the “Urease-dependent pH change (pH)” value ([3]; Zn-AMA 6.25 μM, AHA 0 mM) was 6.63. The “Urease-dependent pH change (pH)” value ([3]; Zn-AMA 6.25 μM, AHA 0.1 mM) was 6.57, the “Urease-dependent pH change (pH)” value ([3]; Zn-AMA 6.25 μM, AHA 0.2 mM) was 6.55 and the “Urease-dependent pH change (pH)” value ([3]; Zn-AMA 6.25 μM, AHA 0.4 mM) was 6.53. The “Urease-dependent pH change (pH)” value ([3]; Zn-AMA 6.25 μM, AHA 0.5 mM) was 6.62, the “Urease-dependent pH change (pH)” value ([3]; Zn-AMA 6.25 μM, AHA 0.8 mM) was 6.47 and the “Urease-dependent pH change (pH)” value ([3]; Zn-AMA 6.25 μM, AHA 1.6 mM) was 6.42. For the same compound, the “Urease-dependent pH change (pH)” value ([3]; Zn-AMA 12.5 μM, AHA 0 mM) was 6.63, the “Urease-dependent pH change (pH)” value ([3]; Zn-AMA 12.5 μM, AHA 0.1 mM) was 6.46 and the “Urease-dependent pH change (pH)” value ([3]; Zn-AMA 12.5 μM, AHA 0.2 mM) was 6.52. For the same compound, the “Urease-dependent pH change (pH)” value ([3]; Zn-AMA 12.5 μM, AHA 0.4 mM) was 6.45, the “Urease-dependent pH change (pH)” value ([3]; Zn-AMA 12.5 μM, AHA 0.5 mM) was 6.47 and the “Urease-dependent pH change (pH)” value ([3]; Zn-AMA 12.5 μM, AHA 0.8 mM) was 6.43. The “Urease-dependent pH change (pH)” value ([3]; Zn-AMA 12.5 μM, AHA 1.6 mM) was 6.40, the “interaction with AHA (checkerboard)” value ([3]; combination of Zn-AMA and AHA) was “synergistic” and the “pH of culture (Zn-AMA v.s. L-His)” value ([4]; Zn-AMA 6.25 μM + L-His 3.12 μM) was 7.4 and 7.43. The “pH of culture (Zn-AMA v.s. L-His)” value ([4]; Zn-AMA 6.25 μM + L-His 6.25 μM) was 7.74 and 7.71, the “pH of culture (Zn-AMA v.s. L-His)” value ([4]; Zn-AMA 6.25 μM + L-His 12.5 μM) was 7.97 and 8.09 and the “pH of culture (Zn-AMA v.s. L-His)” value ([4]; Zn-AMA 6.25 μM, L-His 0 μM) was 6.53 and 6.52. The “pH of culture (Zn-AMA v.s. L-His)” value ([4]; Zn-AMA 25 μM + L-His 3.12 μM) was 6.81 and 6.82, the “pH of culture (Zn-AMA v.s. L-His)” value ([4]; Zn-AMA 25 μM + L-His 6.25 μM) was 7.1 and 7.22 and the “pH of culture (Zn-AMA v.s. L-His)” value ([4]; Zn-AMA 25 μM + L-His 12.5 μM) was 7.41 and 7.51. The “pH of culture (Zn-AMA v.s. L-His)” value ([4]; Zn-AMA 25 μM, L-His 0 μM) was 6.38 and 6.37, the “survival curve event per larva” value (K. pneumoniae ATCC 33495; day 1 post infection) was 1 and the “survival curve event per larva” value (K. pneumoniae ATCC 33495; day 2 post infection) was 1. For the same compound, the “survival curve event per larva” value (K. pneumoniae ATCC 33495; day 3 post infection) was 1, the “survival curve event per larva” value (K. pneumoniae ATCC 33495; day 5 post infection) was 1 and the “G. mellonella larvae survival” value (K. pneumoniae ATCC 33495; K. pneumoniae infection, 7.5 mg/kg, seven days) was “significantly enhance the survival; also recorded: effective monotherapy”. The “G. mellonella larvae survival” value ([5]; S. aureus USA300 ureC::tn infection, 7.5 mg/kg) was “no effect on the survival; also recorded: no significant survival benefit”, the “survival curve event per larva” value ([5]; day 1 post infection) was 1 and the “survival curve event per larva” value ([5]; day 2 post infection) was 1. The “survival curve event per larva” value ([5]; day 3 post infection) was 1, the “survival curve event per larva” value ([5]; day 5 post infection) was 1 and the “survival curve event per larva” value (S. aureus USA300; day 1 post infection) was 1. For the same compound, the “survival curve event per larva” value (S. aureus USA300; day 2 post infection) was 1, the “survival curve event per larva” value (S. aureus USA300; day 3 post infection) was 1 and the “survival curve event per larva” value (S. aureus USA300; day 5 post infection) was 1. The “survival curve event per larva” value (S. aureus USA300; day 7 post infection) was 0 and the “G. mellonella larvae survival” value (S. aureus USA300; S. aureus USA300 infection, 7.5 mg/kg, seven days) was “significantly enhance the survival; also recorded: effective monotherapy”.
